From patent publication US20240360165A1, “INHIBITORS OF CYCLIN DEPENDENT KINASE 7 (CDK7)” (Syros Pharmaceuticals, Inc., priority 2016, published 2024)
Read-outs that look alike come from different tables or passages of the source.

Assays:
[1] = biological target: CDK7/Cyclin H/MAT1 complex (Homo sapiens, UniProt P50613); assay: CDK7 inhibition assay (Caliper/LabChip EZ Reader kinase assay); type: biochemical; conditions: Table 1, CDK7/Cyclin H/MAT1 6 nM, ATP 2 mM, 35 min at 27° C.
Method in brief: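 A Perkin Elmer Caliper/LabChip EZ Reader (Waltham, MA) platform served as the basis for this CDK7 kinase inhibition assay. The work was carried out by Biortus Biosciences, located in Jiangyin, Jiangsu Province, P.R. of China. Each CDK studied had its own kinase assay, and compounds were evaluated for their ability to block CDK7 activity.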

CDK9/Cyclin T1 complex = CDK9/Cyclin T1 complex (Homo sapiens, UniProt P50750); assay: CDK9 inhibition assay (Caliper/LabChip EZ Reader kinase assay); type: biochemical; conditions: Table 1, CDK9/Cyclin T1 8 nM, ATP 2 mM, 15 min at 27° C.
Method in brief: (§1)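 Activity read as fluorescent peptide conversion on a LabChip EZ Reader. For CDK2/Cyclin E1 (0.5 nM), substrate was 5-FAM-CDK7tide (2 μM) with 2 mM MgCl2; for CDK9/Cyclin T1 (8 nM), 5-FAM-CDK9tide (2 μM) with 10 mM MgCl2.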

[2] = biological target: T1, CDK12 (aa686-1082)/Cyclin K complex (Homo sapiens, UniProt Q9NYV4); assay: CDK12 inhibition assay (Caliper/LabChip EZ Reader kinase assay); type: biochemical; conditions: Table 1, CDK12 (aa686-1082)/Cyclin K 50 nM, ATP 2 mM, 3 hr at 27° C.
T1 construct: CDK12 (aa686-1082)/Cyclin K complex

CDK2/Cyclin E1 complex = CDK2/Cyclin E1 complex (Homo sapiens, UniProt P24941); assay: CDK2 inhibition assay (Caliper/LabChip EZ Reader kinase assay); type: biochemical; conditions: Table 1, CDK2/Cyclin E1 0.5 nM, ATP 2 mM, 35 min at 27° C.
Method in brief: as §1

A673 cells = assay: Inhibition of proliferation of A673 cells (CyQUANT, 72 hour); type: cell-based, human; conditions: A673 cells, 72 hour, CyQUANT, read-out: Inhibition of Proliferation of A673 Cells (calculated IC50)
Method in brief: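 Proliferation read-out by CyQUANT after a 72 h exposure, compounds spanning 4 μM–[…] in half-log steps. A673 cells cultured at 37° C under 5% CO2 in DMEM supplemented with 10% FBS plus 1 mM sodium pyruvate.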

HCC70 cells = assay: Inhibition of proliferation of HCC70 cells (CyQUANT Direct Cell Proliferation Assay, 72 hour); type: cell-based, human; conditions: read-out: Inhibition of Proliferation of HCC70 Cells (calculated IC50)
Method in brief: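 Human triple-negative breast cancer HCC70 cells cultured at 37° C, 5% CO2, with compound for 72 hour. Anti-proliferative effect read by CyQUANT Direct Cell Proliferation Assay. Dinaciclib, a CDK inhibitor analog and triptolide served as positive controls.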

T1 sequence (Q9NYV4 686-1082, species assumed): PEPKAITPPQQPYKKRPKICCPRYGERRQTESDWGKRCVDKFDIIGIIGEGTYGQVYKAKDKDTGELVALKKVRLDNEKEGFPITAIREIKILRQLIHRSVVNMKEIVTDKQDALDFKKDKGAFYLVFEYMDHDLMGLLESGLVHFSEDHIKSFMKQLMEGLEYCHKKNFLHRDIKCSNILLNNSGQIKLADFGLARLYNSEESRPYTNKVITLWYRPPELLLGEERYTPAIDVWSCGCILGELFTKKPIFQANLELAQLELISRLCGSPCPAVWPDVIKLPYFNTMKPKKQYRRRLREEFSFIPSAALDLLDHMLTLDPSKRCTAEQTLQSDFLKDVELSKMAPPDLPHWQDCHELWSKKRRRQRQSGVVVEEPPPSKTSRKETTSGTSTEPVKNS
T1 sequence (O75909 whole entry partner, species assumed, the tested form may be a part): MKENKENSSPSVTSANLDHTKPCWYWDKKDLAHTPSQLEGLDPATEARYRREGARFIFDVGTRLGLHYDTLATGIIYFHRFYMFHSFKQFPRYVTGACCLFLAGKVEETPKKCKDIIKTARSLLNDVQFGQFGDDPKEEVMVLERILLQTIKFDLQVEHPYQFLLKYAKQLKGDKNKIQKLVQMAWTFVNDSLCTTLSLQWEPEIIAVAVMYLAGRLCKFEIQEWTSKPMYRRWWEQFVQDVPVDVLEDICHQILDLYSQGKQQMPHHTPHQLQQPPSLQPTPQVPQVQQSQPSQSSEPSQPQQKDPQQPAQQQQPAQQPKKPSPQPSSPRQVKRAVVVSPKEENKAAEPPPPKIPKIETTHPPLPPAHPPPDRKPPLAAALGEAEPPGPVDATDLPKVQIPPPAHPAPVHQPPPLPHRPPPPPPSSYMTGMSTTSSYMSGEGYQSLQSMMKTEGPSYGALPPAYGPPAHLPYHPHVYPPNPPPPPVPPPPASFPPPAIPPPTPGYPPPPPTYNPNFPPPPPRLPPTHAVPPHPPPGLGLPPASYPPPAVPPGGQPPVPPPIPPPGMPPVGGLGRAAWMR
Sequence of CDK9/Cyclin T1 complex (P50750 whole entry, species assumed): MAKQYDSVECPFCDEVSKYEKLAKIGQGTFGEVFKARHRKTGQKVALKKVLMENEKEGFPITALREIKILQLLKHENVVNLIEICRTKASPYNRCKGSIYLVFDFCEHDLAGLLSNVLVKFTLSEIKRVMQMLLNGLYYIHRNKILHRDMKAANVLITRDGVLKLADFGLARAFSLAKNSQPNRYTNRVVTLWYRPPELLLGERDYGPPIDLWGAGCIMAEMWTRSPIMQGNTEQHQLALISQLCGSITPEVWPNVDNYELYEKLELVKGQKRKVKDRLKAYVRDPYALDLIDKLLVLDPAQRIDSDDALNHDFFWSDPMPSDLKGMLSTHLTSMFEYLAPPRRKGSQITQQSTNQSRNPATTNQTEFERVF
Sequence of CDK9/Cyclin T1 complex (O60563 whole entry partner, species assumed): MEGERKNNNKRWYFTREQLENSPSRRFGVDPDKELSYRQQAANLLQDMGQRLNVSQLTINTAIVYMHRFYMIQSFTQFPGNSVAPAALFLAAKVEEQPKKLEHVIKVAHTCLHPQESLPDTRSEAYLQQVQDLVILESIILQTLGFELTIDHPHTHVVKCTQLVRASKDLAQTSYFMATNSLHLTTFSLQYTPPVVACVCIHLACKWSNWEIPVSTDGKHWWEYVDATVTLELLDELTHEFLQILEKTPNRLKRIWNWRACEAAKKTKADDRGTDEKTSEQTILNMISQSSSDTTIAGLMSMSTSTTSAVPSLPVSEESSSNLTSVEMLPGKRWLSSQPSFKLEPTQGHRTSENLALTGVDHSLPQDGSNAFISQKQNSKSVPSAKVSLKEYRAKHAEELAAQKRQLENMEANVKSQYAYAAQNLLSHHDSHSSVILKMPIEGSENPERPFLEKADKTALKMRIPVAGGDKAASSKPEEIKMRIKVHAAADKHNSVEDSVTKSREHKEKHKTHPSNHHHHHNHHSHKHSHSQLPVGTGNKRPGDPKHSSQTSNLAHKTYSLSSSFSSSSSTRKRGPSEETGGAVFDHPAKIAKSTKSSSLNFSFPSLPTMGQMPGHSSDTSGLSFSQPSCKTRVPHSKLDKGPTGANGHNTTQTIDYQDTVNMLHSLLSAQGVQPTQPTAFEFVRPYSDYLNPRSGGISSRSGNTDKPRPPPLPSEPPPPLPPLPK
Sequence of CDK7/Cyclin H/MAT1 complex (P50613 whole entry, species assumed): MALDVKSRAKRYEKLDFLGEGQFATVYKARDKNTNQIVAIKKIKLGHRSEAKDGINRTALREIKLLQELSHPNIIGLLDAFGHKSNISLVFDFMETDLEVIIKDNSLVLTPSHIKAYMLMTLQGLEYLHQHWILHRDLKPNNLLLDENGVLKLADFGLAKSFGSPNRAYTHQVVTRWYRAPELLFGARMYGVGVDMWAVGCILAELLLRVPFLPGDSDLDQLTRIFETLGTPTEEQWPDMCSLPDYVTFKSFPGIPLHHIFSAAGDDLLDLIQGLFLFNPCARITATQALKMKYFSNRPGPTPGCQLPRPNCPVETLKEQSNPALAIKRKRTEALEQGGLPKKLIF
Sequence of CDK7/Cyclin H/MAT1 complex (P51946 whole entry partner, species assumed): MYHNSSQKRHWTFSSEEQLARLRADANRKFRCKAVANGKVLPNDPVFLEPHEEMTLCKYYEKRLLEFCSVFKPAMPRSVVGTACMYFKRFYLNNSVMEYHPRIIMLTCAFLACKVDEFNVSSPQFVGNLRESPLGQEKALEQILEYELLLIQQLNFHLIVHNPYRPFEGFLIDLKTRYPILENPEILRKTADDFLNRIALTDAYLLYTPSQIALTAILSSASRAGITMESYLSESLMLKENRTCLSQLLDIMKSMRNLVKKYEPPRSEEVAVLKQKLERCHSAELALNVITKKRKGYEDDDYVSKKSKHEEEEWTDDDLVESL
Sequence of CDK7/Cyclin H/MAT1 complex (P51948 whole entry partner, species assumed): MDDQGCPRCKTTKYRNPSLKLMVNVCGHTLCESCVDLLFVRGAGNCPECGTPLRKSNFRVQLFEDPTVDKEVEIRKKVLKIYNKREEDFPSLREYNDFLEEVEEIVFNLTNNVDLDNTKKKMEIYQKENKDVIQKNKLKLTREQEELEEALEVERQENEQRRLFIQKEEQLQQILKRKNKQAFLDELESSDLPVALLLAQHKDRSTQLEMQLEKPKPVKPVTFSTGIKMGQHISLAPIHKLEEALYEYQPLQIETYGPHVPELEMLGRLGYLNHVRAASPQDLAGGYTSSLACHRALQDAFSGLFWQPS

## FC(F)(F)c1cnc(N[C@H]2CCCNC2)nc1-c1c[nH]c2cc(-c3ccn[nH]3)ccc12 [Compound 291, N-[(3S)-3-piperidyl]-4-[6-(1H-pyrazol-3-yl)-1H-indol-3-yl]-5-(trifluoromethyl) pyrimidin-2-amine]
[1]
  IC50: < 20 nM
CDK9/Cyclin T1 complex
  IC50: 200 to 5000 nM
[2]
  IC50: 200 to 5000 nM
CDK2/Cyclin E1 complex
  IC50: 200 to 5000 nM
A673 cells; Homo sapiens, A673, 72 h
  IC50: 20 to 200 nM
HCC70 cells; Homo sapiens, HCC70, 72 h
  IC50: 100 to 1000 nM

## FC(F)n1cc(-c2ccc3c(-c4nc(N[C@H]5CCCNC5)ncc4C(F)(F)F)c[nH]c3c2)cn1 [Compound 290, 4-[6-[1-(difluoromethyl)pyrazol-4-yl]-1H-indol-3-yl]-N-[(3S)-3-piperidyl]-5-(trifluoromethyl) pyrimidin-2-amine]
[1]
  IC50: 20 to 200 nM
CDK9/Cyclin T1 complex
  IC50: 200 to 5000 nM
[2]
  IC50: 200 to 5000 nM
CDK2/Cyclin E1 complex
  IC50: 200 to 5000 nM
A673 cells; Homo sapiens, A673, 72 h
  IC50: 20 to 200 nM
HCC70 cells; Homo sapiens, HCC70, 72 h
  IC50: 100 to 1000 nM

## O=C1CC[C@H](Nc2ncc(Cl)c(-c3c[nH]c4ccccc34)n2)CN1 [Compound 159]
[1]
  IC50: 20 to 200 nM
CDK9/Cyclin T1 complex
  IC50: 200 to 5000 nM
[2]
  IC50: 200 to 5000 nM
CDK2/Cyclin E1 complex
  IC50: 20 to 200 nM
A673 cells; Homo sapiens, A673, 72 h
  IC50: 200 to 5000 nM
HCC70 cells; Homo sapiens, HCC70, 72 h
  IC50: 1000 to 5000 nM

## N#C[C@@H]1CCN(C(=O)c2ccc3c(-c4nc(N[C@H]5CCCNC5)ncc4C(F)(F)F)c[nH]c3c2)C1 [Compound 292, (3R)-1-[3-[2-[[(3S)-3-piperidyl]amino]-5-(trifluoromethyl)pyrimidin-4-yl]-1H-indole-6-carbonyl] pyrrolidine-3-carbonitrile]
[1]
  IC50: < 20 nM
[1]; listed as 107
  IC50: 20 to 200 nM
CDK9/Cyclin T1 complex
  IC50: 200 to 5000 nM
CDK9/Cyclin T1 complex; listed as 107
  IC50: 200 to 5000 nM
[2]
  IC50: 200 to 5000 nM
[2]; listed as 107
  IC50: 20 to 200 nM
CDK2/Cyclin E1 complex
  IC50: 200 to 5000 nM
CDK2/Cyclin E1 complex; listed as 107
  IC50: 200 to 5000 nM
A673 cells; listed as 107
  IC50: < 20 nM
A673 cells; Homo sapiens, A673, 72 h
  IC50: 20 to 200 nM
HCC70 cells; Homo sapiens, HCC70, 72 h
  IC50: 100 to 1000 nM

## OC1CCC(c2cccc3c(-c4nc(N[C@H]5CCCNC5)ncc4C(F)(F)F)c[nH]c23)CC1 (stereo partly drawn) [Compound 185]
[1]
  IC50: < 20 nM
CDK9/Cyclin T1 complex
  IC50: 200 to 5000 nM
[2]
  IC50: 200 to 5000 nM
CDK2/Cyclin E1 complex
  IC50: 20 to 200 nM
A673 cells
  IC50: < 20 nM
HCC70 cells
  IC50: < 100 nM

## O=c1[nH]cc(-c2ccc3c(-c4nc(N[C@H]5CCCNC5)ncc4C(F)(F)F)c[nH]c3c2)c(=O)[nH]1 [Compound 333, 5-[3-[2-[[(3S)-3-piperidyl]amino]-5-(trifluoromethyl)pyrimidin-4-yl]-1H-indol-6-yl]-1H-pyrimidine-2,4-dione]
[1]
  IC50: < 20 nM
[1]; listed as 139
  IC50: 20 to 200 nM
CDK9/Cyclin T1 complex
  IC50: > 5000 nM
CDK9/Cyclin T1 complex; listed as 139
  IC50: > 5000 nM
[2]
  IC50: 200 to 5000 nM
[2]; listed as 139
  IC50: > 5000 nM
CDK2/Cyclin E1 complex
  IC50: > 5000 nM
CDK2/Cyclin E1 complex; listed as 139
  IC50: > 5000 nM
A673 cells
  IC50: 200 to 5000 nM
HCC70 cells; Homo sapiens, HCC70, 72 h
  IC50: 1000 to 5000 nM

## FC(F)(F)c1cnc(N[C@H]2CCCNC2)nc1-c1c[nH]c2c(-c3cn[nH]c3)cccc12 [Compound 170]
[1]
  IC50: < 20 nM
CDK9/Cyclin T1 complex
  IC50: 200 to 5000 nM
[2]
  IC50: 20 to 200 nM
CDK2/Cyclin E1 complex
  IC50: 200 to 5000 nM
A673 cells; Homo sapiens, A673, 72 h
  IC50: < 20 nM
HCC70 cells; Homo sapiens, HCC70, 72 h
  IC50: < 100 nM
